Laboratory results: article PMC4336569 (European journal of medicinal chemistry, 2014)
“Also recorded” adds a separate entry of the source.

Key:
mice [1] = conditions: 3.8 μmol/kg i.v., previous study; cited from earlier work
CCI-exposed rats [2] = experiment: Cold plate test; conditions: for Response (ED50) with 95% confidence limits, Cold plate: neuropathic pain
CCI-exposed rats [3] = experiment: von Frey test; conditions: for Response (ED50) with 95% confidence limits, von Frey: neuropathic pain
CCI-exposed rats [4] = experiment: Cross tolerance with morphine in neuropathic pain model; format: in vivo, rat; conditions: for cross tolerance with morphine: single dose of morphine 3.5 nmol on day 13 after repeated hybrid 1 nmol i.t.
naïve rats = experiment: Tail-flick test; conditions: for antinociceptive effect in acute pain: 1 nmol i.t.; for toxic effect: 9.5 nmol i.t.; for toxic effect / Response (ED50) with 95% confidence limits, Tail-flick / effect in tail-flick test: naïve rats; for Response (ED50) with 95% confidence limits, Tail-flick: acute pain; for effect in tail-flick test: i.t., 30 min after administration; for duration of antinociceptive effect: after intrathecal administration, data not shown
mice [5] = experiment: Tail-flick test
hNK1R [6] = target: T1, hNK1R (Homo sapiens, UniProt P25103); experiment: hNK1/CHO cell membrane radioligand binding assay
T1 sequence (P25103 whole entry): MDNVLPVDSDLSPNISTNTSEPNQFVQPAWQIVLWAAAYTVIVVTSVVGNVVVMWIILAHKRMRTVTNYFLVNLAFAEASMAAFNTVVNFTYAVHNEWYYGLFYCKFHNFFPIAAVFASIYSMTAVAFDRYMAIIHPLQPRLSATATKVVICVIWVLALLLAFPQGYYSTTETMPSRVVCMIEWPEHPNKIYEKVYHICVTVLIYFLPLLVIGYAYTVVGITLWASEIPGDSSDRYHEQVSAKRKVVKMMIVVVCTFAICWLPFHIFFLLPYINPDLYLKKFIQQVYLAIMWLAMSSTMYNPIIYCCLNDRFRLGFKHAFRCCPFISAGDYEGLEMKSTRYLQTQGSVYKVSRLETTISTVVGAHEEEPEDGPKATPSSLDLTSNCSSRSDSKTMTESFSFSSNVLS

DOR [7] = target: DOR (Rattus norvegicus, UniProt P33533); experiment: Opioid receptor binding assay, [3H]DSLET displacement
Chain of DOR (Rattus norvegicus, UniProt P33533) (P33533 whole entry): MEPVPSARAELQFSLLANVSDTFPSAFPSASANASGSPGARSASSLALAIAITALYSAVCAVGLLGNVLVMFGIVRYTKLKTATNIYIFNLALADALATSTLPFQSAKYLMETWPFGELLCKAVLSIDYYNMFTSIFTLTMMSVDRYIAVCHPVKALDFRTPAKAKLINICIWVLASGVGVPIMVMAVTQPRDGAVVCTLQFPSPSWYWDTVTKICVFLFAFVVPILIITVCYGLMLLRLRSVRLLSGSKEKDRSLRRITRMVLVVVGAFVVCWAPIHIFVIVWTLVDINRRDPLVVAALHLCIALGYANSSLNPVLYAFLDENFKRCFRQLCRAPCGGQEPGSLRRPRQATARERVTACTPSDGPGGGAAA

MOR [8] = target: MOR (Rattus norvegicus, UniProt P33535); experiment: Opioid receptor binding assay, [3H]DAMGO displacement; conditions: vs 4 (Gly4 replaced by β-Ala)
Chain of MOR (Rattus norvegicus, UniProt P33535) (P33535 whole entry): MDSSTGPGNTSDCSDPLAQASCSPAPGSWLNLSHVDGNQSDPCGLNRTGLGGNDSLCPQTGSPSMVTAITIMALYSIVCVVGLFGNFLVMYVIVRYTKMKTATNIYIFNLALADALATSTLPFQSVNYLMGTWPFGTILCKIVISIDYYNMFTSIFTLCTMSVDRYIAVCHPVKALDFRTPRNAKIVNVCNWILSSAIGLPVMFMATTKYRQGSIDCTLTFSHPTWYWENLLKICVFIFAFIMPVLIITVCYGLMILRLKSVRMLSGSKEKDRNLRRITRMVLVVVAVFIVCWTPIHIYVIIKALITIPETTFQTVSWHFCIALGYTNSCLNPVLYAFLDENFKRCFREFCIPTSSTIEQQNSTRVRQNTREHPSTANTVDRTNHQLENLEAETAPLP

CCI-exposed rats [9] = experiment: Tolerance development in neuropathic pain model; format: in vivo, rat; conditions: von Frey and cold plate, repeated i.t. 1 nmol
hNK1R [10] = target: T1, hNK1R; experiment: Functional NK1R assay; format: cell-based; conditions: compared to lead compound 4
MOR [11] = experiment: Functional GPI; format: biochemical, guinea pig
DOR [12] = target: DOR (Mus musculus, UniProt P32300); experiment: Functional mouse vas deferens; format: biochemical; conditions: from 22 to 33, MVD assay
Chain of DOR (Mus musculus, UniProt P32300) (P32300 whole entry): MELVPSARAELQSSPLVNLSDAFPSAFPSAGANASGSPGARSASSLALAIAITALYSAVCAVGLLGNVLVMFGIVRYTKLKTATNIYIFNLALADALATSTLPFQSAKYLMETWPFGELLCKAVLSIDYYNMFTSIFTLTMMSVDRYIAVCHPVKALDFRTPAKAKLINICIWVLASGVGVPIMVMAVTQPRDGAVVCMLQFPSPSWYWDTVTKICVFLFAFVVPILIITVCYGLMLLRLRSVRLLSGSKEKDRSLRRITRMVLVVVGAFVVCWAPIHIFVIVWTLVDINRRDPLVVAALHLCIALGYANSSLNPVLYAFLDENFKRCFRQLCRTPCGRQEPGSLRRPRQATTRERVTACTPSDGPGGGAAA

Cc1cc(O)cc(C)c1C[C@H](N)C(=O)N[C@H](CCCNC(=N)N)C(=O)N[C@H]1Cc2ccccc2CN(CC(=O)N(C)Cc2cc(C(F)(F)F)cc(C(F)(F)F)c2)C1=O [Compound 4, H-Dmt-D-Arg-Aba-Gly-NMe-3’,5’-(CF3)2-Bn]
antinociceptive potency relative to i.p. administered morphine (mice [1]): 3.7 times | Response (ED50) with 95% confidence limits, Cold plate (CCI-exposed rats [2]; day 7 after CCI): 1.14 (0.74 - 1.77) nmol i.t. | toxic effect (CCI-exposed rats [3]; 1 nmol i.t., CCI rats): not observed | attenuation of allodynia, von Frey (CCI-exposed rats [3]; 1 nmol i.t., day 7 after CCI): 60 % MPE | toxic effect (CCI-exposed rats [3]; highest investigated dose 9.5 nmol i.t., CCI rats, not shown): toxic effect | Response (ED50) with 95% confidence limits, von Frey (CCI-exposed rats [3]; day 7 after CCI): 1.05 (0.65 - 1.69) nmol i.t. | cross tolerance with morphine (CCI-exposed rats [4]): cross tolerance | antinociceptive effect in acute pain (naïve rats): 30 % MPE | toxic effect (naïve rats): seizures and death of animals | Response (ED50) with 95% confidence limits, Tail-flick (naïve rats): 1.66 (1.11-2.51) nmol i.t. | effect in tail-flick test (naïve rats): increase the nociceptive threshold

CC(=O)N[C@H]1Cc2ccccc2CN(CC(=O)N(C)Cc2cc(C(F)(F)F)cc(C(F)(F)F)c2)C1=O [Compound 6, Ac-Aba-Gly-NMe-3’,5’-(CF3)2-Bn]
effect on hyperalgesia (CCI-exposed rats [2]; i.t., day 7 after CCI): more potent in antagonizing hyperalgesia than hybrid 4 and approximately similar to 22 | antiallodynic activity (CCI-exposed rats [3]; i.t., day 7 after CCI): significantly more potent than the opioid parent compounds | effect in tail-flick test (naïve rats): very weak | activity in tail-flick test after i.v. administration (mice [5]; doses up to 1.21 μmol/kg i.v., not shown): did not show any activity at all; also recorded: not active at all

Cc1cc(O)cc(C)c1C[C@H](N)C(=O)N[C@H](CCCNC(=N)N)C(=O)N[C@H]1Cc2ccccc2CN(CC(N)=O)C1=O [Compound 7, H-Dmt-D-Arg-Aba-Gly-NH2]
toxic effect (CCI-exposed rats [3]; 1 nmol i.t., CCI rats): toxic effect | effect in tail-flick test (naïve rats): increase the nociceptive threshold

Cc1cc(O)cc(C)c1C[C@H](N)C(=O)N[C@H](CCCNC(=N)N)C(=O)N[C@H]1Cc2ccccc2CN(CCC(=O)N(C)Cc2cc(C(F)(F)F)cc(C(F)(F)F)c2)C1=O [Compound 21, H-Dmt-D-Arg-Aba-β-Ala-NMe-3’,5’-(CF3)2-Bn]
loss in NK1R binding (hNK1R [6]; vs 4): 120 fold | improvement of DOR binding (DOR [7]; vs 4 (Gly4 replaced by β-Ala)): 5 fold | improvement of MOR binding (MOR [8]): 5 fold

Cc1cc(O)cc(C)c1C[C@H](N)C(=O)N[C@H](CCCNC(=N)N)C(=O)N[C@H]1Cc2ccccc2CN(CCC(=O)N(C)Cc2ccccc2)C1=O [Compound 22, H-Dmt-D-Arg-Aba-β-Ala-NMe-Bn]
antinociceptive effect by area under curve (CCI-exposed rats [9]): most potent antinociceptive effect | loss in antagonism potency (hNK1R [10]): 1.5 log unit | toxicity (CCI-exposed rats [2]; 10 nmol i.t., not shown): lacking toxicity | Response (ED50) with 95% confidence limits, Cold plate (CCI-exposed rats [2]; day 7 after CCI): 0.34 (0.25 - 0.46) nmol i.t. | toxic effect (CCI-exposed rats [3]; 1 nmol i.t., CCI rats): not observed | attenuation of allodynia, von Frey (CCI-exposed rats [3]; 1 nmol i.t., day 7 after CCI): 80 % MPE | toxic signs (CCI-exposed rats [3]; i.t., CCI rats, doses up to 11 nmol): lack of toxic signs | Response (ED50) with 95% confidence limits, von Frey (CCI-exposed rats [3]; day 7 after CCI): 0.24 (0.18 - 0.32) nmol i.t. | improvement of NK1R binding affinity (hNK1R [6]; vs 21): approximately 4 times | effect of a single dose in rats rendered tolerant to morphine (CCI-exposed rats [4]; 22 1 nmol i.t. after repeated morphine 3.5 nmol): not effective | cross tolerance with morphine (CCI-exposed rats [4]): cross tolerance | antinociceptive effect in acute pain (naïve rats): 30 % MPE | toxic effect (naïve rats): did not induce a toxic effect | Response (ED50) with 95% confidence limits, Tail-flick (naïve rats): 2.78 (1.80-4.30) nmol i.t. | duration of antinociceptive effect (naïve rats): 2 h | effect in tail-flick test (naïve rats): increase the nociceptive threshold | DOR binding increase (DOR [7]; vs 21): 10 factor | improvement of in vitro agonism at MOR (MOR [11]; vs 21): 6 fold

Cc1cc(O)cc(C)c1C[C@H](N)C(=O)N[C@H](CCCNC(=N)N)C(=O)N[C@H]1Cc2ccccc2CN(CC(=O)N(Cc2cc(C(F)(F)F)cc(C(F)(F)F)c2)CC(C)C)C1=O [Compound 27, H-Dmt-D-Arg-Aba-Gly-NiBu-3’,5’-(CF3)2-Bn]
IC50 (MOR [11]; read-out: GPI (IC50 nM), representative of MOR activation): 19.7 nM

Cc1cc(O)cc(C)c1C[C@H](N)C(=O)N[C@H](CCCNC(=N)N)C(=O)N[C@H]1Cc2ccccc2CN(CC(=O)N(Cc2ccccc2)CC(C)C)C1=O [Compound 28, H-Dmt-D-Arg-Aba-Gly-NiBu-Bn]
GPI agonist character (MOR [11]; GPI): P.A ^e

Cc1cc(O)cc(C)c1C[C@H](N)C(=O)N[C@H](CCCNC(=N)N)C(=O)N[C@H]1Cc2ccccc2CN(CCC(N)=O)C1=O [Compound 33, H-Dmt-D-Arg-Aba-β-Ala-NH2]
toxic effect (CCI-exposed rats [3]; 1 nmol i.t., CCI rats): toxic effect | duration of antinociceptive effect (naïve rats): 2 h | effect in tail-flick test (naïve rats): increase the nociceptive threshold | shift in DOR potency (DOR [12]): 10 fold | antinociceptive response (mice [5]; 1.21 μmol/kg i.v., mice): largely exceeded that of morphine
